Results reported in patent publication US9206184B2, “Disubstituted benzothienyl-pyrrolotriazines and uses thereof” (BAYER INTELLECTUAL PROPERTY GmbH, priority 2011, dated 2015).
Structures can show the parent of a compound that is named as a salt.

Columns and labels:
[1] = target: human FGFR-3 (Homo sapiens (Human), UniProt P22607); experiment: FGFR-3 kinase assay (TR-FRET); assay type: biochemical; conditions: 10 μM ATP
[2] = target: human FGFR-1 (Homo sapiens, UniProt P11362); experiment: FGFR-1 high ATP kinase assay (TR-FRET); assay type: biochemical; conditions: 2 mM ATP, 15 min pre-incubation with enzyme, compounds of the invention
[3] = 15 min pre-incubation with enzyme, compounds of the invention, dihydrochloride
[4] = 15 min pre-incubation with enzyme, compounds of the invention
[5] = comparative prior art compounds, labels are Example No. in WO 2007/061737

human FGFR-1, sequence (P11362 22-822 limits assumed): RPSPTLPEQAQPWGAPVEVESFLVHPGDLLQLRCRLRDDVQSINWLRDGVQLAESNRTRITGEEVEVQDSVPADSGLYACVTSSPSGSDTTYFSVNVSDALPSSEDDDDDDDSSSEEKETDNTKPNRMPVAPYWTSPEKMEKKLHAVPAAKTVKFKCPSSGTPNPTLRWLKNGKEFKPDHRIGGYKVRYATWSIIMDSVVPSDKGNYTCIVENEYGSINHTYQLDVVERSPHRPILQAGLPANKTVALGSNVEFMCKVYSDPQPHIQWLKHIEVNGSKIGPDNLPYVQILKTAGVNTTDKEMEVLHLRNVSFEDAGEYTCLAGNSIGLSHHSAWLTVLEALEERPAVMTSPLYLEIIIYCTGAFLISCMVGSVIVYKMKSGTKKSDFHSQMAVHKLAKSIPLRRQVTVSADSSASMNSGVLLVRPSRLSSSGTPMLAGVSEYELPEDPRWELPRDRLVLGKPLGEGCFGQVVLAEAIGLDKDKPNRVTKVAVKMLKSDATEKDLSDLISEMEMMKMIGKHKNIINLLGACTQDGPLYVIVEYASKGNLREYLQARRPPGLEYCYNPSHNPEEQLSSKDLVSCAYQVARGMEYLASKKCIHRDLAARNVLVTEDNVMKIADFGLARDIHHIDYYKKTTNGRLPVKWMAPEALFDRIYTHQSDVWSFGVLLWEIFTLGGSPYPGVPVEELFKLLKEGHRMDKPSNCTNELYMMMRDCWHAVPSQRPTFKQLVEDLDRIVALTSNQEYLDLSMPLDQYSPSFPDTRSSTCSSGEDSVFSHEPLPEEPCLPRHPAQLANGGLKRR
human FGFR-3, sequence (P22607 397-806): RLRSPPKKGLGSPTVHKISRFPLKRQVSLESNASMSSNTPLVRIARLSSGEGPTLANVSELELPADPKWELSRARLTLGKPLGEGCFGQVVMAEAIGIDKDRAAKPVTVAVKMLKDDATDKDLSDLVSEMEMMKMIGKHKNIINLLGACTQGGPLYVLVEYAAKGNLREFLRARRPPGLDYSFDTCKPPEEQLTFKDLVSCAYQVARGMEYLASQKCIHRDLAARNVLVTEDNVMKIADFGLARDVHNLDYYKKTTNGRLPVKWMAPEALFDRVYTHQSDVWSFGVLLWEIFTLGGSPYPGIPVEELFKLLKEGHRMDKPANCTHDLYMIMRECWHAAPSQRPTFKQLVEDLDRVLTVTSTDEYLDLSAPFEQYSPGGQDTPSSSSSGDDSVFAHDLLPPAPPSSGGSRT

| IC50 [2] | SMILES | also measured |
| --- | --- | --- |
| – | COCc1c(-c2cc3cc(C)cc(OC)c3s2)c2c(N)ncnn2c1CN[C@@H]1CCNC1=O [Example 3, (3R)-3-({[4-Amino-6-(methoxymethyl)-5-(7-methoxy-5-methyl-1-benzothiophen-2-yl)pyrrolo-[2,1-f][1,2,4]triazin-7-yl]methyl}amino)pyrrolidin-2-one dihydrochloride] | IC50 [1, 3]: 46.6 nM |
| – | COCc1c(-c2cc3cc(C)cc(OC)c3s2)c2c(N)ncnn2c1CN[C@@H]1CCNC1=O [Example 4, (3R)-3-({[4-Amino-6-(methoxymethyl)-5-(7-methoxy-5-methyl-1-benzothiophen-2-yl)pyrrolo-[2,1-f][1,2,4]triazin-7-yl]methyl}amino)pyrrolidin-2-one] | IC50 [1, 4]: 24.8 nM |
| – | CCOCc1c(-c2cc3cc(C)cc(OC)c3s2)c2c(N)ncnn2c1CN1CCNC(=O)C1 [Example 5, 4-{[4-Amino-6-(ethoxymethyl)-5-(7-methoxy-5-methyl-1-benzothiophen-2-yl)pyrrolo[2,1-f]-[1,2,4]triazin-7-yl]methyl}piperazin-2-one] | IC50 [1, 4]: 12.1 nM |
| – | CCOCc1c(-c2cc3cc(C)cc(OC)c3s2)c2c(N)ncnn2c1CN1CCNC(=O)C1 [Example 6, 4-{[4-Amino-6-(ethoxymethyl)-5-(7-methoxy-5-methyl-1-benzothiophen-2-yl)pyrrolo-[2,1-f][1,2,4]triazin-7-yl]methyl}piperazin-2-one dihydrochloride] | IC50 [1, 3]: 28.5 nM |
| – | CCOCc1c(-c2cc3cc(C)cc(OC)c3s2)c2c(N)ncnn2c1CN[C@@H]1CCNC1=O [Example 7, (3R)-3-({[4-Amino-6-(ethoxymethyl)-5-(7-methoxy-5-methyl-1-benzothiophen-2-yl)pyrrolo-[2,1-f][1,2,4]triazin-7-yl]methyl}amino)pyrrolidin-2-one dihydrochloride] | IC50 ([2]; dihydrochloride): 4.2 nM |
| 12.7 nM | CCOCc1c(-c2cc3cc(C)cc(OC)c3s2)c2c(N)ncnn2c1CN1CCOCC1 [Example 10, 6-(Ethoxymethyl)-5-(7-methoxy-5-methyl-1-benzothiophen-2-yl)-7-(morpholin-4-ylmethyl)pyrrolo[2,1-f][1,2,4]triazin-4-amine] | – |
| 3.3 nM | COc1cc(C)cc2cc(-c3c(CO)c(CN4CCNCC4)n4ncnc(N)c34)sc12 [Example 12, [4-Amino-5-(7-methoxy-5-methyl-1-benzothiophen-2-yl)-7-(piperazin-1-ylmethyl)pyrrolo[2,1-f]-[1,2,4]triazin-6-yl]methanol bis(formiate)] | – |
| 0.9 nM | COCc1c(-c2cc3cc(C)cc(OC)c3s2)c2c(N)ncnn2c1CN1CCNCC1 [Example 17, 6-(Methoxymethyl)-5-(7-methoxy-5-methyl-1-benzothiophen-2-yl)-7-(piperazin-1-ylmethyl)pyrrolo[2,1-f][1,2,4]triazin-4-amine formiate] | – |
| 1.3 nM | CCCOCc1c(-c2cc3cc(C)cc(OC)c3s2)c2c(N)ncnn2c1CN1CCNCC1 [Example 24, 5-(7-Methoxy-5-methyl-1-benzothiophen-2-yl)-7-(piperazin-1-ylmethyl)-6-(propoxymethyl)pyrrolo[2,1-f][1,2,4]triazin-4-amine bis(formiate)] | – |
| 1.3 nM | COc1cc(C)cc2cc(-c3c(COC(C)C)c(CN4CCNCC4)n4ncnc(N)c34)sc12 [Example 27, 6-(Isopropoxymethyl)-5-(7-methoxy-5-methyl-1-benzothiophen-2-yl)-7-(piperazin-1-ylmethyl)pyrrolo[2,1-f][1,2,4]triazin-4-amine formiate] | – |
| 1.5 nM | COC(=O)COCc1c(-c2cc3cc(C)cc(OC)c3s2)c2c(N)ncnn2c1CN1CCNCC1 [Example 31, Methyl{[4-amino-5-(7-methoxy-5-methyl-1-benzothiophen-2-yl)-7-(piperazin-1-ylmethyl)pyrrolo[2,1-f][1,2,4]triazin-6-yl]methoxy}acetate] | – |
| – | COc1cc(C)cc2cc(-c3c(CNC4CCC4)c(CN4CCNCC4)n4ncnc(N)c34)sc12 [Example 44, 6-[(Cyclobutylamino)methyl]-5-(7-methoxy-5-methyl-1-benzothiophen-2-yl)-7-(piperazin-1-ylmethyl)pyrrolo[2,1-f][1,2,4]triazin-4-amine trihydrochloride] | IC50 [1, 4]: 6.1 nM |
| 14.1 nM | CCOCc1c(-c2cc3cc(C)cc(OC)c3s2)c2c(N)ncnn2c1CN1CCNC1=O [Example 87, 1-{[4-Amino-6-(ethoxymethyl)-5-(7-methoxy-5-methyl-1-benzothiophen-2-yl)pyrrolo[2,1-f]-[1,2,4]triazin-7-yl]methyl}imidazolidin-2-one] | – |
| 79.6 nM | COCc1c(-c2cc3cccc(OC)c3s2)c2c(N)ncnn2c1CN1CCNC(=O)C1 [Example 88, 4-{[4-Amino-5-(7-methoxy-1-benzothiophen-2-yl)-6-(methoxymethyl)pyrrolo[2,1-f][1,2,4]triazin-7-yl]methyl}piperazin-2-one] | – |
| 81.9 nM | CCOCc1c(-c2cc3cc(C)cc(OC)c3s2)c2c(N)ncnn2c1CN1CCCCO1 [Example 94] | – |
| 54.5 nM | CCOCc1c(-c2cc3cc(C)cc(OC)c3s2)c2c(N)ncnn2c1CN1CCCC1 [Example 96] | – |
| 16.4 nM | CCOCc1c(-c2cc3cc(C)cc(OC)c3s2)c2c(N)ncnn2c1CN1CC(O)C1 [Example 97] | – |
| 54.5 nM | CCOCc1c(-c2cc3cc(C)cc(OC)c3s2)c2c(N)ncnn2c1CN1CCN(C2CC2)CC1 [Example 100] | – |

| IC50 [2] | SMILES | also measured |
| --- | --- | --- |
| 30.8 nM | CCOCc1c(-c2cc3cc(C)cc(OC)c3s2)c2c(N)ncnn2c1CN1CCC(O)C1 (centres unmarked) [Example 101] | – |
| 5.6 nM | CCOCc1c(-c2cc3cc(C)cc(OC)c3s2)c2c(N)ncnn2c1CN1CNC(=O)C1 [Example 104] | – |
| 8.7 nM | CCOCc1c(-c2cc3cc(C)cc(OC)c3s2)c2c(N)ncnn2c1CN1CCNC(=O)C1C (centres unmarked) [Example 105] | – |
| 8.4 nM | CCOCc1c(-c2cc3cc(C)cc(OC)c3s2)c2c(N)ncnn2c1C(N)=O [Example 109] | – |
| 17.5 nM | CCOCc1c(-c2cc3cc(C)cc(OC)c3s2)c2c(N)ncnn2c1C(=O)NC [Example 110] | – |
| 27 nM | CCNC(=O)c1c(COCC)c(-c2cc3cc(C)cc(OC)c3s2)c2c(N)ncnn12 [Example 111] | – |
| 42.1 nM | CCOCc1c(-c2cc3cc(C)cc(OC)c3s2)c2c(N)ncnn2c1C(=O)N1CCCCO1 [Example 112] | – |
| 52.7 nM | CCOCc1c(-c2cc3cc(C)cc(OC)c3s2)c2c(N)ncnn2c1C(=O)N1CCC(C(N)=O)CC1 [Example 113] | – |
| 24.9 nM | CCOCc1c(-c2cc3cc(C)cc(OC)c3s2)c2c(N)ncnn2c1C(=O)NC1CC1 [Example 115] | – |
| 3.7 nM | CCOCc1c(-c2cc3cc(C)cc(OC)c3s2)c2c(N)ncnn2c1C(=O)N[C@H]1CCNC1=O [Example 116] | – |
| 6.8 nM | CCOCc1c(-c2cc3cc(C)cc(OC)c3s2)c2c(N)ncnn2c1C(=O)N1CCC(O)C1 (centres unmarked) [Example 118] | – |
| 18.9 nM | CCOCc1c(-c2cc3cc(C)cc(OC)c3s2)c2c(N)ncnn2c1C(=O)N1CC(F)(F)C1 [Example 122] | – |
| 25.1 nM | CCOCc1c(-c2cc3cc(C)cc(OC)c3s2)c2c(N)ncnn2c1C(=O)N1CCS(=O)(=O)CC1 [Example 123] | – |
| 27.3 nM | COCc1c(-c2cc3cc(OC)cc(OC)c3s2)c2c(N)ncnn2c1CN1CCNC(=O)C1 [Example 124, 4-{[4-Amino-5-(5,7-dimethoxy-1-benzothiophen-2-yl)-6-(methoxymethyl)pyrrolo[2,1-f][1,2,4]-triazin-7-yl]methyl}piperazin-2-one] | – |
| 5 nM | COc1cc(C)cc2cc(-c3c(CN4CCNC(=O)C4)c(CO)n4ncnc(N)c34)sc12 [Example 125, 4-{[4-Amino-7-(hydroxymethyl)-5-(7-methoxy-5-methyl-1-benzothiophen-2-yl)pyrrolo[2,1-f]-[1,2,4]triazin-6-yl]methyl}piperazin-2-one] | – |
| – | Cc1c(-c2nc(C3CCC3)n3ccnc(N)c23)sc2ccccc12 [Example 210 in WO 2007/061737, reference compound] | IC50 [1, 5]: 554 nM |
| – | Nc1nccn2c(C3CCC3)nc(-c3cc4cccc(Cl)c4s3)c12 [Example 233 in WO 2007/061737, reference compound] | IC50 [1, 5]: 10000 nM |

| SMILES | IC50 [2] | also measured |
| --- | --- | --- |
| CCOCc1c(-c2cc3cc(C)cc(OC)c3s2)c2c(N)ncnn2c1CN[C@@H]1CCNC1=O [Example 8, (3R)-3-({[4-Amino-6-(ethoxymethyl)-5-(7-methoxy-5-methyl-1-benzothiophen-2-yl)pyrrolo-[2,1-f][1,2,4]triazin-7-yl]methyl}amino)pyrrolidin-2-one] | 9.4 nM | – |
| CCCCOCc1c(-c2cc3cc(C)cc(OC)c3s2)c2c(N)ncnn2c1CN1CCNCC1 [Example 23, 6-(Butoxymethyl)-5-(7-methoxy-5-methyl-1-benzothiophen-2-yl)-7-(piperazin-1-ylmethyl)pyrrolo-[2,1-f][1,2,4]triazin-4-amine formiate] | 17.9 nM | – |
| CNCc1c(-c2cc3cc(C)cc(OC)c3s2)c2c(N)ncnn2c1CN1CCNCC1 [Example 36, 5-(7-Methoxy-5-methyl-1-benzothiophen-2-yl)-6-[(methylamino)methyl]-7-(piperazin-1-ylmethyl)pyrrolo[2,1-f][1,2,4]triazin-4-amine trihydrochloride] | 3 nM | – |
| CCN(CC)Cc1c(-c2cc3cc(C)cc(OC)c3s2)c2c(N)ncnn2c1CN1CCNCC1 [Example 43, 6-[(Diethylamino)methyl]-5-(7-methoxy-5-methyl-1-benzothiophen-2-yl)-7-(piperazin-1-ylmethyl)pyrrolo[2,1-f][1,2,4]triazin-4-amine trihydrochloride] | 8.6 nM | – |
| COc1cc(C)cc2cc(-c3c(-c4cnco4)c(CN4CCNCC4)n4ncnc(N)c34)sc12 [Example 61, 5-(7-Methoxy-5-methyl-1-benzothiophen-2-yl)-6-(1,3-oxazol-5-yl)-7-(piperazin-1-ylmethyl)pyrrolo[2,1-f][1,2,4]triazin-4-amine trihydrochloride] | 0.5 nM | – |
| CCOCc1c(-c2cc3cc(C)cc(OC)c3s2)c2c(N)ncnn2c1CN[C@H]1CCNC1=O [Example 93, (3S)-3-({[4-Amino-6-(ethoxymethyl)-5-(7-methoxy-5-methyl-1-benzothiophen-2-yl)pyrrolo[2,1-f]-[1,2,4]triazin-7-yl]methyl}amino)pyrrolidin-2-one] | 5.5 nM | – |
